pIC50: −log10 of the molar value.
Biological target: T1, GST-tagged ROR gamma ligand binding domain (LBD) (Homo sapiens, UniProt P51449)
T1 construct: purchased Invitrogen
T1 sequence (P51449 269-508 limits assumed): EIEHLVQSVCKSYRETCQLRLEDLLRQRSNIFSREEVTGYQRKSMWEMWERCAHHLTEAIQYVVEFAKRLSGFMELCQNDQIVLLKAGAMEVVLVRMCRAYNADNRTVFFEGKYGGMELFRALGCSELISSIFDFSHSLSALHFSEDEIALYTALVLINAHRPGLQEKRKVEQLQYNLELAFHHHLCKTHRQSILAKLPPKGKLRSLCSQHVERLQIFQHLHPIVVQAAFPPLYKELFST
Experiment: TR-FRET assay for ROR gamma (LanthaScreen co-activator peptide recruitment)
Format: biochemical
Details: for inhibition at 1 µM: compound concentration 1 μM; for inhibition at 1 µM / inhibition at 10 µM: TR-FRET ratio 520/495, percent of control; for inhibition at 10 µM: compound concentration 10 μM; for pIC50: from dose response curve, nonlinear regression, read-out: IC50 range
Text: The compounds described herein were screened for ROR gamma modulator activity using the TR-FRET assay (LanthaScreen™ available from Invitrogen of Carlsbad, Calif.) as described in JBC 2011, 286, 26: 22707-10; and Drug Metabolism and Disposition 2009, 37, 10: 2069-78.
Binding of the co-activator peptide, causes an increase in the TR-FRET signal while binding of an antagonist decreases the recruitment of the co-activator peptide, causing a decrease in the TR-FRET signal compared to control with no compound. The assay was performed using a two-step procedure, pre-incubation step with the compound followed by the detection step on addition of the anti-GST tagged terbium (Tb) and fluorescein tagged fluorophores as the acceptor.
Test compounds or reference compounds such as T0901317 (Calbiochem) were dissolved in dimethylsulfoxide (DMSO) to prepare 10.0 mM stock solutions and diluted to the desired concentration. The final concentration of DMSO in the reaction was 4% (v/v). The assay mixture was prepared by mixing 10 nM of the GST-tagged ROR gamma ligand binding domain (LBD) in the assay buffer containing 25 mM HEPES (pH 7.4), 100 mM NaCl, 5 mM DTT and 0.01% BSA with or without the desired concentration of the compound. The reaction was incubated at 22° C. for 1 hour. The pre-incubation step was terminated by addition of the detection mixture containing 300 nM Fluorescein-D22 co-activator peptide and 10 nM lantha screen Tb-anti GST antibody into the reaction mixture.
After shaking for 5 minutes the reaction was further incubated for 1 hour at room temperature and read at 4° C. on an Infinite F500 reader as per the kit instructions (Invitrogen). The inhibition of test compound was calculated based on the TR-FRET ratio of 520/495. The activity was calculated as a percent of control reaction. IC50 values were calculated from dose response curve by nonlinear regression analysis using GraphPad Prism software.

SMILES | inhibition at 1 µM | inhibition at 10 µM | pIC50
CCC(F)(F)c1ccc(CC(=O)Nc2ccc(-c3nccnc3-c3ccc(Cl)cc3)cc2F)cc1 [Example 26, N-(4-(3-(4-Chlorophenyl)pyrazin-2-yl)-2-fluorophenyl)-2-(4-(1,1-difluoropropyl)phenyl)acetamide] | 71.9% | 79.6% | 6.30 to 7.00
CCC(F)(F)c1ccc(CC(=O)Nc2ccc(-c3nccnc3-c3ccc(OC)cc3)cc2)cc1 [Example 27, 2-(4-(1,1-Difluoropropyl)phenyl)-N-(4-(3-(4-methoxyphenyl)pyrazin-2-yl)phenyl)acetamide] | 78.6% | 83.5% | > 7.30
CCC(F)(F)c1ccc(CC(=O)Nc2ccc(-n3nc(C(F)(F)F)cc3-c3ccccc3Cl)cc2)cc1 [Example 29, N-(4-(5-(2-Chlorophenyl)-3-(trifluoromethyl)-1H-pyrazol-1-yl)phenyl)-2-(4-(1,1-difluoropropyl)phenyl)acetamide] | 77.1% | 79.8% | > 7.30
CCC(F)(F)c1ccc(CC(=O)Nc2ccc(-c3ncccc3-c3ccccc3Cl)cc2)cc1 [Example 30, N-(4-(3-(2-Chlorophenyl)pyridin-2-yl)phenyl)-2-(4-(1,1-difluoropropyl)phenyl)acetamide] | 81.3% | 82.5% | > 7.30
CCC(F)(F)c1ccc(CC(=O)Nc2ccc(-c3nccnc3-c3ccccc3C)cc2)cc1 [Example 31] | 77.7% | 81.7% | > 7.30
CCC(F)(F)c1ccc(CC(=O)Nc2ccc(-c3nccnc3N3CCN(C)CC3)cc2)cc1 [Example 32, 2-(4-(1,1-Difluoropropyl)phenyl)-N-(4-(3-(4-methylpiperazin-1-yl)pyrazin-2-yl)phenyl)acetamide] | 15.3% | 65.1% | 
CCN1CCN(c2nccnc2-c2ccc(NC(=O)Cc3ccc(C(F)(F)CC)cc3)cc2)CC1 [Example 33, 2-(4-(1,1-Difluoropropyl)phenyl)-N-(4-(3-(4-ethylpiperazin-1-yl)pyrazin-2-yl)phenyl)acetamide] | 27.3% | 75.8% | 
CCC(F)(F)c1ccc(CC(=O)Nc2ccc(-c3cccnc3-c3ccc(Cl)cc3)cc2)cc1 [Example 34, N-(4-(2-(4-Chlorophenyl)pyridin-3-yl)phenyl)-2-(4-(1,1-difluoropropyl)phenyl)acetamide] | 57.9% | 66.8% | 
CCC(F)(F)c1ccc(CC(=O)Nc2ccc(-c3cnccc3-c3ccc(Cl)cc3)cc2)cc1 [Example 35, N-(4-(4-(4-Chlorophenyl)pyridin-3-yl)phenyl)-2-(4-(1,1-difluoropropyl)phenyl)acetamide] | 72.8% | 73.3% | 6.30 to 7.00
CCC(F)(F)c1ccc(CC(=O)Nc2ccc(-c3nccnc3N3C[C@@H](C)O[C@@H](C)C3)cc2)cc1 [Example 36, 2-(4-(1,1-Difluoropropyl)phenyl)-N-(4-(3-((25,6R)-2,6-dimethylmorpholino)pyrazin-2-yl)phenyl)acetamide] | 2.6% | 8.3% | 
CC(O)C(F)(F)c1ccc(CC(=O)Nc2ccc(-c3nccnc3-c3ccccc3Cl)cc2)cc1 (stereo not shown) [Example 37, N-(4-(3-(2-Chlorophenyl)pyrazin-2-yl)phenyl)-2-(4-(1,1-difluoro-2-hydroxypropyl)phenyl)acetamide] | 71.1% | 73.5% | > 7.30
CCC(F)(F)c1ccc(CC(=O)Nc2ccc(-n3nc(C)cc3-c3ccc(Cl)cc3Cl)cc2)cc1 [Example 38, N-(4-(5-(2,4-Dichlorophenyl)-3-methyl-1H-pyrazol-1-yl)phenyl)-2-(4-(1,1-difluoropropyl)phenyl)acetamide] | 70.7% | 74.9% | 6.30 to 7.00
CC(O)C(F)(F)c1ccc(CC(=O)Nc2ccc(-c3nccnc3-c3ccc(F)cc3Cl)cc2)cc1 (stereo not shown) [Example 39, N-(4-(3-(2-Chloro-4-fluorophenyl)pyrazin-2-yl)phenyl)-2-(4-(1,1-difluoro-2-hydroxypropyl)phenyl)acetamide] | 65.5% | 72.8% | 
CCc1ccccc1-c1nccnc1-c1ccc(NC(=O)Cc2ccc(C(F)(F)C(C)O)cc2)cc1 (stereo not shown) [Example 40, 2-(4-(1,1-Difluoro-2-hydroxypropyl)phenyl)-N-(4-(3-(2-ethylphenyl)pyrazin-2-yl)phenyl)acetamide] | 71.4% | 76.9% | > 7.30
CCC(F)(F)c1ccc(CC(=O)Nc2ccc(-c3nccnc3N3CCN(CCOC)CC3)cc2)cc1 [Example 41, 2-(4-(1,1-Difluoropropyl)phenyl)-N-(4-(3(4-(2-methoxyethyl)piperazin-1-yl)pyrazin-2-yl)phenyl)acetamide] | 4.2% | 48.7% | 
CCC(F)(F)c1ccc(CC(=O)Nc2ccc(-c3nccnc3N3CCN(C(C)=O)CC3C)cc2)cc1 (stereo not shown) [Example 42, N-(4-(3-(4-Acetyl-2-methylpiperazin-1-yl)pyrazin-2-yl)phenyl)-2-(4-(1,1-difluoropropyl)phenyl)acetamide] | 51.9% | 76.1% | 
CCC(F)(F)c1ccc(CC(=O)Nc2ccc(-c3nccnc3-c3ccc(F)cc3C)cc2)cc1 [Example 44, 2-(4-(1,1-Difluoropropyl)phenyl)-N-(4-(3-(4-fluoro-2-methylphenyl)pyrazin-2-yl)phenyl)acetamide] | 76.9% | 84.1% | > 7.30
CCC(F)(F)c1ccc(CC(=O)Nc2ccc(-c3nccnc3-c3ccc(F)cc3Cl)cc2)cc1 [Example 45, N-(4-(3-(2-Chloro-4-fluorophenyl)pyrazin-2-yl)phenyl)-2-(4-(1,1-difluoropropyl)phenyl)acetamide] | 81.1% | 80.8% | > 7.30
CCC(F)(F)c1ccc(CC(=O)Nc2ccc(-c3ccncc3-c3ccc(Cl)cc3)cc2)cc1 [Example 46, N-(4-(3-(4-Chlorophenyl)pyridin-4-yl)phenyl)-2-(4-(1,1-difluoropropyl)phenyl)acetamide] | 70% | 77.1% | 
CCC(F)(F)c1ccc(CC(=O)Nc2ccc(-c3nccnc3-c3ccc(C)cc3C)cc2)cc1 [Example 47, 2-(4-(1,1-Difluoropropyl)phenyl)-N-(4-(3-(2,4-dimethylphenyl)pyrazin-2-yl)phenyl)acetamide] | 82.3% | 82.3% | > 7.30
CCC(F)(F)c1ccc(CC(=O)Nc2ccc(-c3nccnc3-c3ccc(C)cc3F)cc2)cc1 [Example 48, 2-(4-(1,1-Difluoropropyl)phenyl)-N-(4-(3-(2-fluoro-4-methylphenyl)pyrazin-2-yl)phenyl)acetamide] | 79.2% | 84.1% | > 7.30
CCC(F)(F)c1ccc(CC(=O)Nc2ccc(-c3nccc(=O)n3-c3ccc(F)cc3Cl)cc2)cc1 [Example 49, N-(4-(1-(2-Chloro-4-fluorophenyl)-6-oxo-1,6-dihydropyrimidin-2-yl)phenyl)-2-(4-(1,1-difluoropropyl)phenyl)acetamide] | 84% | 88.8% | > 7.30
CCC(F)(F)c1ccc(CC(=O)Nc2ccc(-c3nccnc3-c3ccc(Cl)cc3Cl)cc2)cc1 [Example 50, N-(4-(3-(2,4-Dichlorophenyl)pyrazin-2-yl)phenyl)-2-(4-(1,1-difluoropropyl)phenyl)acetamide] | 83.2% | 83% | > 7.30
Cc1ccc(-c2nccnc2-c2ccc(NC(=O)Cc3ccc(C(F)(F)C(C)O)cc3)cc2)c(C)c1 (stereo not shown) [Example 51, 2-(4-(1,1-Difluoro-2-hydroxypropyl)phenyl)-N-(4-(3-(2,4-dimethylphenyl)pyrazin-2-yl)phenyl)acetamide] | 73.2% | 81% | > 7.30
CCc1ccccc1-c1nccnc1-c1ccc(NC(=O)Cc2ccc(C(F)(F)[C@H](C)O)cc2)cc1 [Example 52, (S)-2-(4-(1,1-difluoro-2-hydroxypropyl)phenyl)-N-(4-(3-(2-ethylphenyl)pyrazin-2-yl)phenyl)acetamide] | 78.6% | 84% | > 7.30

From patent US10344024B2, “Compounds as ROR gamma modulators” (Glenmark Pharmaceuticals S.A., priority 2015, dated 2019)
